Experimental data: patent US20110144160A1, “Antagonists of Prostaglandin D2 Receptors” (Amira Pharmaceuticals, Inc., priority 2008, published 2011)

Biological target: T1, human DP2 receptor (Homo sapiens, UniProt Q9Y5Y4)
T1 construct: expressed in transfected cells
T1 sequence (Q9Y5Y4 1-395): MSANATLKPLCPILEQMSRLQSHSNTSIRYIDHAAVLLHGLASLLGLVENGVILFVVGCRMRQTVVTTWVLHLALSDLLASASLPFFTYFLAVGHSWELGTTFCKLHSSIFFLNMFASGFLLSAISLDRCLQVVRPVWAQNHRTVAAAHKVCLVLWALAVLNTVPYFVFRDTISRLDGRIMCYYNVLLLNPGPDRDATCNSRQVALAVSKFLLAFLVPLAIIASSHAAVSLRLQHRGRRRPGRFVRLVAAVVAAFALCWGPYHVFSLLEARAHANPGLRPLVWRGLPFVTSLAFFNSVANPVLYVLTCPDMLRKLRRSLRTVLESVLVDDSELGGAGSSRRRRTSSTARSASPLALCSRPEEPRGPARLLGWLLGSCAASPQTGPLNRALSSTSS
Assay: DP2/CRTH2 binding assay ([3H]PGD2 radioligand)
Conditions: membranes of HEK293 cells expressing recombinant human DP2, 1 nM [3H]PGD2; read-out: hDP2
Description: The ability of a compound to bind to the human DP2 receptor is assessed via a radioligand binding assay using [^3H]PGD2. HEK293 cells stably expressing recombinant human DP2 are resuspended in 10 mM Hepes, 7.4 containing 1 mM DTT, lysed and centrifuged at 75,000×g to pellet the membranes. The membranes are resuspended in 10 mM Hepes, 7.4 containing 1 mM DTT and 10% glycerol to approximately 5 mg protein/ml. Membranes (2-10 μg protein/well) are incubated in 96-well plates with 1 nM [^3H]PGD2 and test compound in Assay Buffer (50 mM Hepes, 10 mM MnCl2, 1 mM EDTA, plus or minus 0.2% human serum albumin, pH 7.4) for 60 minutes at room temperature. The reactions are terminated by rapid filtration through Whatman GF/C glass fibre filter plates. The filter plates were pre-soaked in 0.33% polythylenimine for 30 minutes at room temperature then washed in Wash Buffer (50 mM Hepes, 0.5 M NaCl pH 7.4) prior to harvesting. After harvesting, the filter plates are washed 3 times with 1 ml cold Wash Buffer then dried. Scintillant is then added to the plates and the radioactivity retained on the filters is determined on a Packard TopCount (Perkin Elmer). Specific binding is determined as total radioactive binding minus non-specific binding in the presence of 10 μM PGD2. IC50s were determined using GraphPad prism analysis of drug titration curves.

Row | IC50 [µM] | Compound
1 | < 0.3 | COc1ccc(CC(=O)O)cc1Oc1ccc(NC(=O)NCc2ccccc2)cc1CSCC(F)(F)F [Compound 3, {3-[4-(3-benzyl-ureido)-2-(2,2,2-trifluoro-ethylsulfanylmethyl)-phenoxy]-4-methoxy-phenyl}-acetic acid]
2 | < 0.3 | COc1ccc(CC(=O)O)cc1Oc1ccc(NC(=O)c2ccc(Cl)cc2)cc1CSc1ccc(Cl)cc1 [Compound 4, {3-[4-(4-Chloro-benzoylamino)-2-(4-chloro-phenylsulfanylmethyl)-phenoxy]-4-methoxy-phenyl}-acetic acid]
3 | < 0.3 | COc1ccc(CC(=O)O)cc1Oc1ccc(NC(=O)C(C)(C)C)cc1CSc1ccc(Cl)cc1 [Compound 5, {3-[2-(4-chloro-phenylsulfanylmethyl)-4-(2,2-dimethyl-propionylamino)-phenoxy]-4-methoxy-phenyl}-acetic acid]
4 | < 0.3 | COc1ccc(CC(=O)O)cc1Oc1ccc(NC(=O)NCc2ccccc2)cc1CSc1ccc(Cl)cc1 [Compound 6, {3-[4-(3-benzyl-ureido)-2-(4-chloro-phenylsulfanylmethyl)-phenoxy]-4-methoxy-phenyl}-acetic acid]
5 | < 0.3 | COc1ccc(CC(=O)O)cc1Oc1ccc(NC(=O)c2ccc(Cl)cc2)cc1CSC(C)(C)C [Compound 8, {3-[2-tert-butylsulfanylmethyl-4-(4-chloro-benzoylamino)-phenoxy]-4-methoxy-phenyl}-acetic acid]
6 | < 0.3 | COc1ccc(CC(=O)O)cc1Oc1ccc(NC(=O)C(C)(C)C)cc1CSC(C)C [Compound 9, {3-[4-(2,2-Dimethyl-propionylamino)-2-isopropylsulfanylmethyl-phenoxy]-4-methoxy-phenyl}-acetic acid]
7 | < 0.3 | COc1ccc(CC(=O)O)cc1Oc1ccc(NC(=O)C(C)(C)C)cc1CS(=O)(=O)C(C)C [Compound 10, {3-[4-(2,2-Dimethyl-propionylamino)-2-(propane-2-sulfonylmethyl)-phenoxy]-4-methoxy-phenyl}-acetic acid]
8 | < 0.3 | COc1ccc(CC(=O)O)cc1Oc1ccc(NC(=O)C(C)(C)C)cc1C[S+]([O-])C(C)C (centres unmarked) [Compound 11, {3-[4-(2,2-Dimethyl-propionylamino)-2-(propane-2-sulfinylmethyl)-phenoxy]-4-methoxy-phenyl}-acetic acid]
9 | < 0.3 | COc1ccc(CC(=O)O)cc1Oc1ccc(NC(=O)C(C)(C)C)cc1CS(=O)(=O)CC(F)(F)F [Compound 12, {3-[4-(2,2-Dimethyl-propionylamino)-2-(trifluoro-ethanesulfonylmethyl)-phenoxy]-4-methoxy-phenyl}-acetic acid]
10 | < 0.3 | COc1ccc(CC(=O)O)cc1Oc1ccc(NC(=O)NCc2ccccc2)cc1CSC(C)(C)C [Compound 13, {3-[4-(3-benzyl-ureido)-2-tert-butylsulfanylmethyl-phenoxy]-4-methoxy-phenyl}-acetic acid]
11 | < 0.3 | COc1ccc(CC(=O)O)cc1Oc1ccc(NC(=O)C2CC2)cc1CSCC(F)(F)F [Compound 14, {3-[4-(Cyclopropanecarbonyl-amino)-2-(2,2,2-trifluoro-ethylsulfanylmethyl)-phenoxy]-4-methoxy-phenyl}-acetic acid]
12 | < 0.3 | COc1ccc(CC(=O)O)cc1Oc1ccc(NC(=O)C(C)C)cc1CSCC(F)(F)F [Compound 15, {3-[4-isobutyrylamino-2-(2,2,2-trifluoro-ethylsulfanylmethyl)-phenoxy]-4-methoxy-phenyl}-acetic acid]
13 | < 0.3 | COc1ccc(CC(=O)O)cc1Oc1ccc(NC(=O)CC(C)(C)C)cc1CSCC(F)(F)F [Compound 16, {3-[4-(3,3-Dimethyl-butyrylamino)-2-(2,2,2-trifluoro-ethylsulfanylmethyl)-phenoxy]-4-methoxy-phenyl}-acetic acid]
14 | < 0.3 | COc1ccc(CC(=O)O)cc1Oc1ccc(NC(=O)c2ccc(Cl)cc2)cc1CSC(C)C [Compound 20, {3-[4-(4-Chloro-benzoylamino)-2-isopropylsulfanylmethyl-phenoxy]-4-methoxy-phenyl}-acetic acid]
